Among the data in patent publication US8691982B2, “Pyrazolo[1,5-a]-1,3,5-triazine derivatives, preparation thereof, and therapeutic use thereof” (Centre National de la Recherche Scientifique, priority 2009, dated 2014) are IC50 values, retold here.

One assay has as its target CDK1/cyclin B. Description: CDK1/cyclin B kinase assay. Format: biochemical, starfish (Marthasterias glacialis). Conditions: 15 μM ATP, 30° C., histone H1 substrate. The protocol:
Homogenization buffers: 60 mM β-glycerophosphate, 15 mM p-nitrophenyl phosphate, 25 mM Mops (pH 7.2), 15 mM EGTA, 15 mM MgCl2, 1 mM DTT, 1 mM sodium vanadate, 1 mM NaF, 1 mM phenyl phosphate, 10 μg leupeptin/ml, 10 μg aprotinin/ml, 10 μg soybean trypsin inhibitor/ml and 100 μM benzamidine.
(§1) Buffer C: 60 mM β-glycerophosphate, 15 mM p-nitrophenyl phosphate, 25 mM Mops (pH 7.2), 5 mM EGTA, 15 mM MgCl2, 1 mM DTT, 1 mM sodium vanadate, 1 mM phenyl phosphate, 10 μg leupeptin/ml, 10 μg aprotinin/ml and 100 μM benzamidine.
(§2) Controls were performed with appropriate dilutions of dimethyl sulfoxide.
(§3) ATP (3000 Ci/mmol; 10 mCi/ml) in a final volume of 30 μl. After incubation for 30 minutes at 30° C., aliquotes of 25 μl of the supernatant were spotted onto Whatman P81 phosphocellulose paper filters and, 20 seconds later, the filters were washed five times (for at least five minutes each time) in a solution of 10 ml of phosphoric acid/liter of water. The wet filters were subjected to counting in the presence of an ACS scintillation fluid from Amersham. CDK2/cyclin A (human, recombinant, expressed in insect cells) was assayed as described for CDK1/cyclin B. CDK5/p25 was reconstituted by mixing equal amounts of recombinant mammalian CDK5 and p25 expressed in E. coli as a GST (glutathione-S-transferase) fusion protein and purified by affinity chromatography on glutathione-agarose (p25 is a truncated version of p35, the 35 kDa CDK5 activator). […] DYRK1A (human, recombinant, expressed in E. coli as a GST fusion protein) was purified on glutathione-agarose, assayed as described for CDK1/cyclin B with myelin basic protein (1 mg/ml) as substrate.

For a further assay, the target named is T1, CDK2/cyclin A (Homo sapiens, UniProt P24941).
T1 construct: host or cells: insect cells
Briefly: CDK2/cyclin A kinase assay. The class given is biochemical. Conditions: 15 μM ATP, 30° C., histone H1 substrate. Here is the method:
as §1, §2, §3

In the next assay the target is CDK5/p25 (Homo sapiens, UniProt Q00535). Briefly: CDK5/p25 kinase assay. Conditions: 15 μM ATP, 30° C., histone H1 substrate. The class given is biochemical, mammalian. Here is the method:
as §1, §2, §3

The next assay concerns the target T2, CDK9/cyclin T (Homo sapiens, UniProt P50750).
T2 construct: host or cells: insect cells
Briefly: CDK9/cyclin T kinase assay. The class given is biochemical. Conditions: 15 μM ATP, 30° C., pRB fragment substrate.

A further assay has as its target GSK-3α/β. Description: GSK-3α/β kinase assay. Format: biochemical, pig. Conditions: 15 μM ATP, 30° C., buffer A, GS-1 substrate.
In another assay the target is CK1δ/ε. Description: CK1δ/ε kinase assay. Format: biochemical, pig. Conditions: 15 μM ATP, 30° C., CK1-specific peptide substrate. Here is the method: (§4) The blank values were subtracted and the activities calculated as μmoles of phosphate incorporated per 10 minutes of incubation. […] Controls were performed with appropriate dilutions of dimethyl sulfoxide.
as §3

The next assay deals with DYRK1A (Homo sapiens, UniProt Q13627). Briefly: DYRK1A kinase assay. Conditions: 15 μM ATP, 30° C., myelin basic protein substrate. Format: biochemical. The protocol:
as §4, §3

In assay [1] the test system is SH-SY5Y human neuroblastoma cells. Description: SH-SY5Y cell viability (MTS reduction). Format: cell-based. Conditions: Homo sapiens; SH-SY5Y cell line, cell viability by MTS. The protocol: A Cell Titer 96® kit containing the MTS reagent was purchased from Promega (Madison, Wis., USA). The protease inhibitor cocktail came from Roche and the fetal calf serum (FCS) came from Invitrogen. The reagents not listed came from Sigma, unless otherwise indicated.
The SH-SY5Y human neuroblastoma cell line was grown in a DMEM medium with L-glutamine from Invitrogen (Cergy Pontoise, France), antibiotics and 10% by volume of FCS from Invitrogen. The general culture conditions were a 5% CO2 atmosphere and a temperature of 37° C. The culture plates and other disposable plastic tools were supplied by Corning (Corning, N.Y., USA). The treatments with the compounds of the invention were carried out on cultures in exponential growth over time, and indicated concentrations. The control experiments were carried out also using suitable dilutions of DMSO.
The cell viability was determined by measuring the reduction of 3-(4,5-dimethylthiazol-2-yl)-5-(3-carboxymethoxyphenyl)-2-(4-sulfophenyl)-2H-tetrazolium (MTS).

Counter-ions that a name gives are not always drawn.

T2 sequence (P50750 whole entry): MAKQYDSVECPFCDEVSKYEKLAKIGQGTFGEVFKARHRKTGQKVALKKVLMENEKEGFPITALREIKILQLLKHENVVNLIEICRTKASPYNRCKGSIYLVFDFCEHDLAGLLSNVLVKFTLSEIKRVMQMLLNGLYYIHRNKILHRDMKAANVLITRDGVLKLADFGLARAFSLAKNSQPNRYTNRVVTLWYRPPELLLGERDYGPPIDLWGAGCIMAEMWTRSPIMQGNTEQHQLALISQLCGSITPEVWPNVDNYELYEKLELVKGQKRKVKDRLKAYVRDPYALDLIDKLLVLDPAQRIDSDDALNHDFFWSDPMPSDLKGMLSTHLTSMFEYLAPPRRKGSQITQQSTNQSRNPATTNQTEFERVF
T2 sequence (O60563 whole entry partner): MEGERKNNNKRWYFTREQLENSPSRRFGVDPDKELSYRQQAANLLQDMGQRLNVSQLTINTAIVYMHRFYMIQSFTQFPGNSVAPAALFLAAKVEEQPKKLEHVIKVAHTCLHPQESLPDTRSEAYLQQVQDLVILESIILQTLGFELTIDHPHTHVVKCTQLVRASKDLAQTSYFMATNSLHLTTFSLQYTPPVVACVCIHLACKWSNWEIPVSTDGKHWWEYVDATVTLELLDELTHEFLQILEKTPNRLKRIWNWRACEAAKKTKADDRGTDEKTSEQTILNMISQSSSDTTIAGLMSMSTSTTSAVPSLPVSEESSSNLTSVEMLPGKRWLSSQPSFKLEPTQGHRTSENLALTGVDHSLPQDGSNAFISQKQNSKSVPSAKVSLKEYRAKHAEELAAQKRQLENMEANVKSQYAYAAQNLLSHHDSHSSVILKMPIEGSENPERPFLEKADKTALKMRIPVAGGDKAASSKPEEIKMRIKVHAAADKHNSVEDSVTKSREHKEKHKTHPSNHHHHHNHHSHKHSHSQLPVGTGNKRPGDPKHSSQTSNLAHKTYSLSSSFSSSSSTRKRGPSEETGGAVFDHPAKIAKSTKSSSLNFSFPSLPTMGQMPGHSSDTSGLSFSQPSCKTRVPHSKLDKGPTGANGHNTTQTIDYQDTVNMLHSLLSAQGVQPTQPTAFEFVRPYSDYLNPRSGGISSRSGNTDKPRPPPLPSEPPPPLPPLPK
CDK5/p25, sequence (Q00535 whole entry, species assumed): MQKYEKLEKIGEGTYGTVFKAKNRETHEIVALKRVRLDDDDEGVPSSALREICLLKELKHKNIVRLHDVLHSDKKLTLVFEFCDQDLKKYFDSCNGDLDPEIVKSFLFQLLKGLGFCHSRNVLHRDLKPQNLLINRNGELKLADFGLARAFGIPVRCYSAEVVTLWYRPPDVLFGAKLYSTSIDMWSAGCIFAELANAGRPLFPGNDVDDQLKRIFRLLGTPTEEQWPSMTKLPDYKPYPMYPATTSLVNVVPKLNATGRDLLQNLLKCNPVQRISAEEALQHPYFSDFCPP
CDK5/p25, sequence (Q15078 99-307 partner limits assumed, species assumed): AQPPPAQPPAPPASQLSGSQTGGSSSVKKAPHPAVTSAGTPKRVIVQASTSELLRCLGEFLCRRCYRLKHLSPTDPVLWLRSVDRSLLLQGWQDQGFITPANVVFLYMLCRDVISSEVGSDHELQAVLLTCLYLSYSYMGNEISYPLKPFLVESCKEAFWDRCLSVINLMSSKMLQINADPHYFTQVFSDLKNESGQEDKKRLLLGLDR

The term IC50 denotes the concentration needed to halve the response being measured. A higher IC50 goes with lower potency. As to `CC(C)c1cnn2c(NCc3ccc(-c4ccccn4)cc3)nc(N[C@H](CO)[C@@H](C)O)nc12` (stereo in doubt) [Compound 12, (2R,3R)-2-(1,3-dihydroxybut-2-ylamino)-8-isopropyl-4-[4-(pyridin-2-yl)benzylamino]pyrazolo[1,5-a]-1,3,5-triazine], the half-maximal inhibitory concentration (IC50) on CDK1/cyclin B was 29 nM; against CDK2/cyclin A it was 22 nM; against CDK5/p25, 29 nM; on CDK9/cyclin T it was 60 nM; at GSK-3α/β, 3000 nM; at CK1δ/ε it was 200 nM. At DYRK1A, this compound showed an IC50 of 470 nM.

For the compound `CC(C)c1cnn2c(NCc3ccc(-c4ccccn4)cc3)nc(N[C@@H](CO)[C@H](C)O)nc12` (stereo in doubt) [Compound 14, (2S,3S)-2-(1,3-dihydroxybut-2-ylamino)-8-isopropyl-4-[4-(pyridin-2-yl)benzylamino]pyrazolo[1,5-a]-1,3,5-triazine], the IC50 is 42 nM against CDK1/cyclin B; 42 nM against CDK2/cyclin A; 44 nM against CDK5/p25; 53 nM on CDK9/cyclin T; 2500 nM against GSK-3α/β; 120 nM against CK1δ/ε. The compound further had an IC50 at DYRK1A of 580 nM.

In the case of `CC(C)c1cnn2c(NCc3ccc(-c4ccsc4)cc3)nc(N[C@H](CO)[C@@H](C)O)nc12` (stereo in doubt) [Compound 16, (2R,3R)-2-(1,3-dihydroxybut-2-ylamino)-8-isopropyl-4-[4-(thiophen-3-yl)benzylamino]pyrazolo[1,5-a]-1,3,5-triazine], the IC50 was 59 nM at CDK1/cyclin B; 34 nM against CDK2/cyclin A; 50 nM at CDK5/p25; 91 nM against CDK9/cyclin T; 4200 nM against GSK-3α/β; 190 nM at CK1δ/ε. This compound yielded a concentration for half-maximal inhibition (IC50) on DYRK1A of 1800 nM.

Turning to `CC(C)c1cnn2c(NCc3ccc(-c4ccccn4)cc3)nc(NC[C@H](O)CO)nc12` [Compound 9, Fumarate salt of (S)-2-(1,2-dihydroxypropan-3-ylamino)-8-isopropyl-4-[4-(pyridin-2-yl)benzylamino]pyrazolo[1,5-a]-1,3,5-triazine], the IC50 came to 19 nM against CDK1/cyclin B; 12 nM against CDK2/cyclin A; 14 nM against CDK5/p25; 38 nM against CDK9/cyclin T; 1800 nM at GSK-3α/β; 61 nM on CK1δ/ε. For the same compound, the IC50 against DYRK1A amounted to 260 nM.

For the compound `CC(C)c1cnn2c(NCc3ccc(-c4ccccn4)cc3)nc(N[C@H](CO)[C@@H](C)O)nc12` [Compound 13, Fumarate salt of (2R,3R)-2-(1,3-dihydroxybut-2-ylamino)-8-isopropyl-4-[4-(pyridin-2-yl)benzylamino]pyrazolo[1,5-a]-1,3,5-triazine], the concentration for half-maximal inhibition (IC50) was found to be 31 nM on CDK1/cyclin B; 20 nM against CDK2/cyclin A; 21 nM at CDK5/p25; 49 nM against CDK9/cyclin T; 2300 nM against GSK-3α/β; 180 nM on CK1δ/ε. On DYRK1A, this compound came in with an IC50 of 300 nM.

As for `CC(C)c1cnn2c(NCc3ccc(-c4ccccn4)cc3)nc(N[C@@H](CO)[C@H](C)O)nc12` [Compound 15, Fumarate salt of (2S,3S)-2-(1,3-dihydroxybut-2-ylamino)-8-isopropyl-4-[4-(pyridin-2-yl)benzylamino]pyrazolo[1,5-a]-1,3,5-triazine], the IC50 against CDK1/cyclin B amounted to 42 nM; on CDK2/cyclin A, 31 nM; on CDK5/p25, 45 nM; on CDK9/cyclin T it was 60 nM; against GSK-3α/β, 2200 nM; against CK1δ/ε, 120 nM. The compound further yielded an IC50 against DYRK1A of 530 nM.

Turning to `CC(C)c1cnn2c(NCc3ccc(-c4ccccn4)cc3)nc(NC(CO)CO)nc12` [Compound 17, 2-(1,3-dihydroxyprop-2-ylamino)-8-isopropyl-4-[4-(pyridin-2-yl)benzylamino]pyrazolo[1,5-a]-1,3,5-triazine], the IC50 against CDK1/cyclin B worked out at 70 nM; against CDK2/cyclin A, 62 nM; on CDK5/p25, 53 nM; against CDK9/cyclin T, 68 nM; on GSK-3α/β, 4400 nM; at CK1δ/ε, 92 nM. Moreover, the midpoint of inhibition against DYRK1A, the IC50, lay at 920 nM.

`CC(C)c1cnn2c(NCc3ccc(-c4ccccn4)cc3)nc(NC(CO)CO)nc12` [Compound 18, Fumarate salt of 2-(1,3-dihydroxyprop-2-ylamino)-8-isopropyl-4-[4-(pyridin-2-yl)benzylamino]pyrazolo[1,5-a]-1,3,5-triazine]: the concentration for half-maximal inhibition (IC50) came out at 51 nM at CDK1/cyclin B; 49 nM against CDK2/cyclin A; 64 nM on CDK5/p25; 61 nM at CDK9/cyclin T; 2800 nM on GSK-3α/β; 120 nM against CK1δ/ε. At DYRK1A, the IC50 is 610 nM.

As to `CC(C)c1cnn2c(NCc3ccc(-c4ccccc4)nc3)nc(N[C@@H](CO)[C@H](C)O)nc12` [Compound 21], the IC50 against CDK5/p25 is 43 nM; at GSK-3α/β it was 1200 nM; on CK1δ/ε, 110 nM; against DYRK1A, 1200 nM.

Consider `CC(C)c1cnn2c(NCc3ccc(-c4ccccc4)nc3)nc(N[C@H](CO)[C@@H](C)O)nc12` [Compound 23], for which the IC50 is below 30 nM on CDK5/p25, 1200 nM against GSK-3α/β, 130 nM on CK1δ/ε and 1300 nM on DYRK1A.

Take `CC(C)c1cnn2c(NCc3ccc(-c4ccccn4)cc3)nc(N[C@H](CO)C(C)C)nc12` [Compound 28, (S)-2-(1-hydroxy-3-methylbut-2-ylamino)-8-isopropyl-4-[4-(pyridin-2-yl)benzylamino]pyrazolo[1,5-a]-1,3,5-triazine]: the IC50 against CDK5/p25 stood at 120 nM; at GSK-3α/β, 7000 nM; at CK1δ/ε, 410 nM; at DYRK1A, 580 nM.

As for `CC(C)c1cnn2c(NCc3ccc(-c4ccccn4)cc3)nc(N3CCN(CCO)CC3)nc12` [Compound 30, 2-[4-[8-isopropyl-4-[[4-(pyridin-2-yl)phenyl]methylamino]pyrazolo[1,5-a]-1,3,5-triazin-2-yl]piperazin-1-yl]ethanol], the IC50 was 380 nM at CDK5/p25; 2100 nM at GSK-3α/β; 560 nM against CK1δ/ε; 1400 nM against DYRK1A; 1400 nM in assay [1].

As for `CCc1cnn2c(NCc3ccc(-c4ccccn4)cc3)nc(NC[C@@H](O)CO)nc12` [Compound 31, (R)-2-(1,2-dihydroxypropan-3-ylamino)-8-ethyl-4-[4-(pyridin-2-yl)benzylamino]pyrazolo[1,5-a]-1,3,5-triazine], the IC50 at CDK5/p25 is 25 nM; at GSK-3α/β it was 1000 nM; against CK1δ/ε, 360 nM; against DYRK1A, 710 nM; in assay [1] it was below 30 nM.

As to `CCc1cnn2c(NCc3ccc(-c4ccccn4)cc3)nc(N[C@@H](CC)CO)nc12` [Compound 35, (S)-8-ethyl-2-(1-hydroxybut-2-ylamino)-4-[4-(pyridin-2-yl)benzylamino]pyrazolo[1,5-a]-1,3,5-triazine], the IC50 against CDK5/p25 was 34 nM; on GSK-3α/β, 1400 nM; against CK1δ/ε, 930 nM; at DYRK1A, 820 nM; in assay [1], 50 nM.

For `CCc1cnn2c(NCc3ccc(-c4ccccn4)cc3)nc(N[C@H](CC)CO)nc12` [Compound 36, (R)-8-ethyl-2-(1-hydroxybut-2-ylamino)-4-[4-(pyridin-2-yl)benzylamino]pyrazolo[1,5-a]-1,3,5-triazine], the IC50 against CDK5/p25 was determined as 22 nM; on GSK-3α/β, 1600 nM; against CK1δ/ε it was 580 nM; on DYRK1A, 1600 nM; in assay [1] it was 26 nM.
